Results published in patent publication US20250214925A1, “CATIONIC LIPID, LIPOSOME, LIPID NANOPARTICLE, AND USE” (CARCELL BIOPHARMA LTD., priority 2022, published 2025).

Tests used:
mice = assay: In vivo delivery of Ffluc mRNA LNP in mice, intravenous administration, luminescence relative to MC3; design: species or system mice (female Balb/C); conditions: fold change in luminescence intensity relative to MC3; 0.06 mg/kg tail vein; 6 h after injection
Description: The prepared encapsulation solution was applied to mice in the following manner, and its delivery efficiency in mice was tested. Among them, DLin-MC3-DMA (MC3) was a cationic liposome for delivering small nucleic acids that was approved by the FDA for marketing in 2018, which has high nucleic acid drug delivery efficiency and biosafety, and was usually used as the industry gold standard in the screening process of cationic lipids. In the evaluation of mice experiments, the ratio of nucleic acid delivery efficiency normalized to MC3 was greater than 0.1, which was considered to be a cationic lipid with high delivery efficiency.
1. The LNP solution was diluted with 50 mM TBS, pH 7.4 to a concentration of 0.1 mg/mL mRNA.
2. The mice involved in this study were female Balb/C, weighing 18-22 g, 6-8 weeks old, with 5 mice in each group.
3. The dosing solution was kept at 4° C. prior to injection.
4. Each mice received 0.06 mg/kg via tail vein injection.
5. The mice were injected intraperitoneally with 200 μL of 1.5 mg/mL D-luciferin solution 6 h after injection.
6. The in vivo luminescence images of the mice were obtained using the IVIS system (Aniview).
7. The luminescence intensity of each mice was measured using Aniview software.
8. MC3 lipid nanoparticles were used as a positive control. The in vivo efficacy of each cationic lipid tested was recorded as the fold change in luminescence intensity relative to MC3 (ratio normalized to MC3).

[1] = LNP size and PDI by dynamic laser light scattering; assay type: physicochemical; conditions: LNP: 50% cationic lipid, 38.5% cholesterol, 10% DSPC, 1.5% DMG-PEG2000; Ffluc mRNA
Description: (§1) 1. The cationic lipid (50 mg/mL) prepared in the above examples of the present disclosure, cholesterol (20 mg/mL), DSPC (20 mg/mL) and DMG-PEG2000 (20 mg/mL) were dissolved in ethanol, and the solution was placed in a 55° C. metal thermostatic bath as needed to aid dissolution, to obtain a lipid mixture with the following molar composition: 1.5% DMG-PEG2000, 50% cationic lipid, 38.5% cholesterol, and 10% DSPC.
(§2) 2. The mRNA encoding Ffluc was diluted with 10 mM pH 4.0 citrate buffer to prepare a 0.2 mg/mL mRNA solution.
(§3) 3. The lipid mixture prepared in step 1 was mixed with the mRNA solution prepared in step 2 using a syringe pump with a tee at a total flow rate of 40 mL/min.
(§4) 4. The LNP mixture was collected after the three-way mixing and placed in a dialysis bag with a molecular weight cut-off of 100 KDa.
(§5) 5. The LNP mixture was dialyzed overnight against 50 mM Tris-buffered saline, pH 7.4.
(§6) 6. Sieving, and subsequent measurement of the sieved LNP to measure the PDI of the LNP by dynamic laser light scattering; to measure the mRNA encapsulation efficiency and concentration by Ribogreen assay; and to measure the pKa by TNS-α assay.

[2] = mRNA encapsulation efficiency of LNP by Ribogreen assay; assay type: physicochemical; conditions: LNP: 50% cationic lipid, 38.5% cholesterol, 10% DSPC, 1.5% DMG-PEG2000; Ffluc mRNA
Description: as §1, §2, §3, §4, §5, §6

Molecule: CCCCCCCC/C(=C/C(=O)OCCCCCN(CCCO)CCCCCOC(=O)/C=C(\CCCC)CCCCCCCC)CCCC [CPL-043, ((3-hydroxypropyl)azanediyl)bis(pentane-5,1-diyl)(2E,2′E)-bis(3-butylundec-2-enoate)]
- In Vivo Efficacy Normalized To Mc3 In Mice (Intravenous Injection) (mice): 1.58
- PDI [1]: 0.1723
- Size (nm) [1]: 77.48 nm
- Encapsulation Rate [2]: 95%

Molecule: CCCCCCCC/C(=C/C(=O)OCCCCCCN(CCCO)CCCCCCOC(=O)/C=C(\CCCC)CCCCCCCC)CCCC [CPL-065, ((3-hydroxypropyl)azanediyl)bis(hexane-6,1-diyl) (2E,2′E)-bis(3-butylundec-2-enoate)]
- In Vivo Efficacy Normalized To Mc3 In Mice (Intravenous Injection) (mice): 1.62
- PDI [1]: 0.1898
- Size (nm) [1]: 83.7 nm
- Encapsulation Rate [2]: 95%

Molecule: CCCCCCCCCC/C(=C/C(=O)OCCCCCCCCCCN(CCCO)CCCCCOC(=O)/C=C(\CCCC)CCCCCCCCCC)CCC [CPL-1093, 10-(((5-(E)-3-butyltridec-2-enoyl)oxy)pentyl)((3-hydroxypropyl)amino)decyl(E)-3-propyl-2-tridecenoate]
- In Vivo Efficacy Normalized To Mc3 In Mice (Intravenous Injection) (mice): 1.55
- PDI [1]: 0.21
- Size (nm) [1]: 112.08 nm
- Encapsulation Rate [2]: 99%

Molecule: ((3-hydroxypropyl)azanediyl)bis(butane-4,1-diyl) (2E,2′E)-bis(2-hexylidenedecanoate) [CPL-025]
- In Vivo Efficacy Normalized To Mc3 In Mice (Intravenous Injection) (mice): 1.34
- PDI [1]: 0.2
- Size (nm) [1]: 92.1 nm
- Encapsulation Rate [2]: 97%

Molecule: CCCCCCC/C(=C/C(=O)OCCCCCN(CCCO)CCCCCOC(=O)/C=C(\CCCC)CCCCCCC)CCCC [CPL-052, ((3-hydroxypropyl)azanediyl)bis(pentane-5,1-diyl) (2E,2′E)-bis(3-butyldec-2-enoate)]
- In Vivo Efficacy Normalized To Mc3 In Mice (Intravenous Injection) (mice): 1.46
- PDI [1]: 0.1162
- Size (nm) [1]: 90.76 nm
- Encapsulation Rate [2]: 93%

Molecule: CCCCCCC/C(=C/C(=O)OCCCCN(CCCO)CCCCOC(=O)/C=C(\CCCCCC)CCCCCCC)CCCCCC [CPL-031, ((3-hydroxypropyl)azanediyl)bis(butane-4,1-diyl) (2E,2′E)-bis(3-hexyldec-2-enoate)]
- In Vivo Efficacy Normalized To Mc3 In Mice (Intravenous Injection) (mice): 0.75
- PDI [1]: 0.2448
- Size (nm) [1]: 92.39 nm
- Encapsulation Rate [2]: 94%

Molecule: CCCCCCC/C(=C/C(=O)OCCCCCCCCCCCN(CCCO)CCCCCCCCCCCOC(=O)/C=C(\CCCC)CCCCCCC)CCCC [CPL-184, ((3-hydroxypropyl)azanediyl)bis(undecane-11,1-diyl) (2E,2′E)-bis(3butyldec-2-enoate)]
- In Vivo Efficacy Normalized To Mc3 In Mice (Intravenous Injection) (mice): 0.98
- PDI [1]: 0.173
- Size (nm) [1]: 84.6 nm
- Encapsulation Rate [2]: 94%

Molecule: CCCCC/C=C\C/C=C\CCCCCCCC(=O)OCC(COC(=O)/C=C(\CCCCCC)CCCCCCCCCC)COC(=O)OCC1CCCN(C)C1 (stereo not drawn) [CPL-381, 3-(((E)-3-hexyltridec-2-enoyl)oxy)-2-(((((1-methylpiperidin-3-yl)methoxy)carbonyl)oxy)methyl)propyl(9Z,12Z)-octadeca-9,12-dienoate]
- In Vivo Efficacy Normalized To Mc3 In Mice (Intravenous Injection) (mice): 0.81
- PDI [1]: 0.1174
- Size (nm) [1]: 83.86 nm
- Encapsulation Rate [2]: 91%

Molecule: CCCCCCCC/C(=C/C(=O)OCCCCCN(CCCO)CCCCCOC(=O)/C=C(\CCC)CCCCCCCC)CCC [CPL-039, ((3-hydroxypropyl)azanediyl)bis(pentane-5,1-diyl)(2E,2′E)-bis(3-propylundec-2-enoate)]
- In Vivo Efficacy Normalized To Mc3 In Mice (Intravenous Injection) (mice): 1.44
- PDI [1]: 0.2202
- Size (nm) [1]: 97.61 nm
- Encapsulation Rate [2]: 94%

Molecule: CCCCC/C=C\C/C=C\CCCCCCCC(=O)OCC(COC(=O)/C=C(\CCCCC)CCCCCCCC)COC(=O)OCCCN1CCCCC1 (stereo not drawn) [CPL-421, 3-(((E)-3-pentylundec-2-enoyl)oxy)-2-((((3-(piperidin-1-yl)propoxy)carbonyl)oxy)methyl)propyl(9Z,12Z)-octadeca-9,12-dienoate]
- In Vivo Efficacy Normalized To Mc3 In Mice (Intravenous Injection) (mice): 0.37
- PDI [1]: 0.1904
- Size (nm) [1]: 82.69 nm
- Encapsulation Rate [2]: 94%

Molecule: CCCCC/C=C\C/C=C\CCCCCCCC(=O)OCC(COC(=O)/C=C(\CCCCCC)CCCCCCC)COC(=O)OCC1CCCN(C)C1 (stereo not drawn) [CPL-383]
- In Vivo Efficacy Normalized To Mc3 In Mice (Intravenous Injection) (mice): 0.80
- PDI [1]: 0.1733
- Size (nm) [1]: 99.82 nm
- Encapsulation Rate [2]: 97%

Molecule: CCCCCCCC/C(=C\C(=O)OCCCCN(CCCO)CCCCOC(=O)/C=C(/CCCCCCC)CCCCCCCC)CCCCCCC [CPL-032, ((3-hydroxypropyl)azanediyl)bis(butane-4,1-diyl)(2Z,2′Z)-bis(3-heptylundec-2-enoate)]
- In Vivo Efficacy Normalized To Mc3 In Mice (Intravenous Injection) (mice): 1.18
- PDI [1]: 0.1692
- Size (nm) [1]: 90.11 nm
- Encapsulation Rate [2]: 91%

Molecule: CCCCC/C=C\C/C=C\CCCCCCCC(=O)OCC(COC(=O)/C=C(/CCCC)CCCCCC)COC(=O)OCC1CCCN(C)C1 (stereo not drawn) [CPL-372, 3-(((Z)-3-butylnon-2-enoyl)oxy)-2-(((((1-methylpiperidin-3-yl)methoxy)carbonyl)oxy)methyl)propyl(9Z,12Z)-octadeca-9,12-dienoate]
- In Vivo Efficacy Normalized To Mc3 In Mice (Intravenous Injection) (mice): 1.01
- PDI [1]: 0.1182
- Size (nm) [1]: 90.88 nm
- Encapsulation Rate [2]: 98%

Molecule: CCCCCCCC/C(=C/C(=O)OCCCCCCN(CCCO)CCCCCCOC(=O)/C=C(\CCC)CCCCCCCC)CCC [CPL-061, ((3-hydroxypropyl)azanediyl)bis(hexane-6,1-diyl) (2E,2′E)-bis(3-propylundec-2-enoate)]
- In Vivo Efficacy Normalized To Mc3 In Mice (Intravenous Injection) (mice): 1.06
- PDI [1]: 0.1612
- Size (nm) [1]: 94.04 nm
- Encapsulation Rate [2]: 94%

Molecule: CCCCC/C=C\C/C=C\CCCCCCCC(=O)OCC(COC(=O)C=C(CCCCCCCCCC)CCCCCCCCCC)COC(=O)OCCCCN(C)C (stereo not drawn) [CPL-256, 3-((3-decyltridec-2-enoyl)oxy)-2-((((4-(dimethylamino)butyloxy)carbonyl)oxy)methyl)propyl(9Z,12Z)-octadeca-9,12-dienoate]
- In Vivo Efficacy Normalized To Mc3 In Mice (Intravenous Injection) (mice): 0.63
- PDI [1]: 0.1009
- Size (nm) [1]: 83.7 nm
- Encapsulation Rate [2]: 95%

Molecule: CCCCCCCC/C(=C/C(=O)OCCCCCN(CCCCO)CCCCCOC(=O)/C=C(\CCCCCC)CCCCCCCC)CCCCCC [CPL-003, ((4-hydroxybutyl)azanediyl)bis(pentane-5,1-diyl)(2E,2′E)-bis(3-hexylundec-2-enoate)]
- In Vivo Efficacy Normalized To Mc3 In Mice (Intravenous Injection) (mice): 1.55
- PDI [1]: 0.205
- Size (nm) [1]: 98 nm
- Encapsulation Rate [2]: 92%

Molecule: CCCCC/C=C\C/C=C\CCCCCCCC(=O)OCC(COC(=O)/C=C(/CCCCCCCC)CCCCCCCCCC)COC(=O)OCC1CCN(CC)CC1 (stereo not drawn) [CPL-453]
- In Vivo Efficacy Normalized To Mc3 In Mice (Intravenous Injection) (mice): 0.82
- PDI [1]: 0.0653
- Size (nm) [1]: 81.2 nm
- Encapsulation Rate [2]: 98%

Molecule: CCCCC/C=C\C/C=C\CCCCCCCC(=O)OCC(COC(=O)/C=C(\CCCC)CCCCC)COC(=O)OCCN(C)C (stereo not drawn) [CPL-199, 3-(((E)-3-butyloct-2-enoyl)oxy)-2-((((2-(dimethylamino)ethoxy)carbonyl)oxy)methyl)propyl(9Z,12Z)-octadeca-9,12-dienoate]
- In Vivo Efficacy Normalized To Mc3 In Mice (Intravenous Injection) (mice): 0.12
- PDI [1]: 0.1394
- Size (nm) [1]: 86.92 nm
- Encapsulation Rate [2]: 96%
